Data on seven compounds can be found in patent US9005581B2, “Modified pyrazine derivatives and uses thereof” (MediBeacon, LLC, priority 2008, dated 2015).

Series [1] can be described thus: Urine elimination studies. The conditions noted are these: rat, 1 mL of 2 mM in PBS by tail vein injection, mean ± SEM (n). The series is classed as in vivo, Sprague-Dawley rats. As for the experimental part:
Rat urine elimination studies are conducted in either conscious or anesthetized Sprague-Dawley rats. The test compound (1 mL, 2 mM in PBS) is administered by tail vein injection into conscious, restrained rats, with subsequent collection of urine at the time points of 2, 4 and 6 h post injection. The metabolic cages are washed with water to maximize the recovery of urine discharged at each time point. Alternatively, rats are anesthetized with 100 mg/kg Inactin intraperitoneally, a trachea tube is inserted to maintain adequate respiration, and 1 mL of test compound is injected into the lateral tail vein. Rats are placed on 37° C. heating pad during the entire experiment. At 6 h post injection, the abdomen is opened, and the urine is removed from the bladder using a 21 gauge needle and a 3 cc syringe. Quantitation of each compound in urine is performed via HPLC analysis using a set of external calibration standards and fluorescence detection. The percent recovery of compound in urine at each time point is calculated based on the balance of mass.

A short description of series [2]: Invasive pharmacokinetic studies (plasma concentration). The series is classed as in vivo, Sprague-Dawley rats. As to conditions: rat plasma, 1 mL of 2 mM solution i.v., mean ± SEM (n). As for the experimental part: Male Sprague-Dawley rats (330-380 g) are anesthetized by Inactin (I.P.). Rats are surgically instrumented with a trachea tube (PE-190) to facilitate breathing and femoral artery and vein catheters (PE-50 filled with 20 units/mL heparinized saline) for blood sampling and drug administration respectively. After administration of 1 mL of a 2 mM solution of agent, approximately 200 μL blood is sampled and placed into a heparinized tube (Microtainer Brand Tube w/Lithium Heparin, BD 365971) at 0, 1, 6, 12, 18, 30, 45, 60, 90, 120 min. The concentration of compound in each centrifuged plasma sample is determined via HPLC analysis using a set of external calibration standards and fluorescence detection. The resulting pharmacokinetic parameters of the compound are analyzed using WinNonLin pharmacokinetic modeling software (Pharsight, Mountain View, Calif.). This method is used to detect renally excretable compounds of the invention and FIG. 8B provides a plot illustrating invasive PK (plasma concentration) as a function of time following delivery of a renally excretable compound.

Series [3] can be described thus: Non-invasive optical pharmacokinetic studies (fluorescence at the ear). Type of series: in vivo, Sprague-Dawley rats. As to conditions: rat ear fluorescence, 1 mL of 2 mM solution into tail vein; mean ± SEM (n). As for the experimental part: Male Sprague-Dawley rats (330-380 g) are anesthetized by Inactin (I.P.) or 2% Isoflurane gas anesthesia delivered by a small rodent gas anesthesia machine (RC2, Vetequip, Pleasanton, Calif.). The animals are placed on a heated board where temperature is maintained between 36-38° C. One ear lobe is glued flat to a glass slide positioned approximately 2 mm beneath a fiber optic bundle for recording fluorescence from a test compound passing through the ear. After a 100 second baseline recording, 1 mL of a 2 mM solution is injected into the tail-vein of the rat and the fluorescence signal corresponding to plasma and tissue distribution and subsequent renal clearance of the compound is monitored at the ear. The pharmacokinetic parameters of the compounds are analyzed using WinNonLin pharmacokinetic modeling software (Pharsight, Mountain View, Calif.) and Microsoft (Redmond, Wash.) Excel. This method is used to detect renally excretable compounds of the invention and FIG. 8A provides a plot illustrating non-invasive in vivo fluorescence as a function of time following delivery of a renally excretable compound.
A nominal 473 nm solid state laser source (100) is employed (Power Technology model LDCU12/7314). The laser source is directed into one leg (110) of a silica bifurcated fiber optic bundle (120) (Oriel #77565). The common end of this bifurcated bundle (130) is placed approximately 2 mm from the rat ear (140). The second leg of the bifurcated fiber optic bundle (150) is fitted with a collimating beam probe (160) (Oriel #77644). A long pass filter (170) (Semrock LP02-488RS-25) and narrow band interference filter (180) (Semrock FF01-593/40-25) are placed in front of a photomultiplier tube (190) (Hamamatsu photosensor module H7827-011).
A chopper (200) (Stanford Research Systems model SR540) is placed after the laser and before the launch into the bifurcated cable. The output of the photosensor is connected to a lock-in amplifier (210) (Stanford Research Systems model SR830). The lock-in output is digitized (220) (National Instruments NI-USB-6211) and the digitized data is acquired by computer using LabVIEW® data acquisition software (230).

The nature of series [4]: Photophysical properties (fluorescence excitation/emission in PBS). The series is classed as physicochemical. As to conditions: 10 μM solution in PBS. Here is the method: In general, renally excretable compounds are dissolved in PBS buffer to form a 2 mM stock solution. The UV absorbance properties are determined on a 100 μM solution in PBS using a UV-3101PC UV-Vis-NIR Scanning spectrophotometer system from Shimadzu. The fluorescence properties (λex, λem, and CPS at λem) are determined on a 10 μM solution in PBS using a Fluorolog-3 spectrofluorometer system from Jobin Yvon Horiba. The percent plasma protein binding is determined on a 20 μM compound solution in rat plasma incubated at 37° C. for 1 h. The separation of free from bound is made using an Amicon Centrifree YM-30 device (Regenerated Cellulose 30,000 MWCO) and a Z400K Refrigerated Universal Centrifuge from Hermle. The concentration of protein-free is determined via HPLC analysis using a set of external calibration standards and fluorescence detection.

As for `COCCOCCOCCOCCOCCOCCOCCOCCOCCOCCOCCOCCCNc1nc(C(=O)NCCOCCOCCOCCOCCOCCOCCOCCOCCOCCOCCOCCOCCOCCOCCOCCOCCOCCOCCOCCOCCOCCOCCOCCOC)c(NCCCOCCOCCOCCOCCOCCOCCOCCOCCOCCOCCOCCOC)nc1C(=O)NCCOCCOCCOCCOCCOCCOCCOCCOCCOCCOCCOCCOCCOCCOCCOCCOCCOCCOCCOCCOCCOCCOCCOCCOC` [Compound 3, 3,6-Bis(2,5,8,11,14,17,20,23,26,29,32,35-dodecaoxaoctatriacontan-38-ylamino)-N^2,N^5-di(2,5,8,11,14,17,20,23,26,29,32,35,38,41,44,47,50,53,56,59,62,65,68,71-tetracosaoxatriheptacontan-73-yl)pyrazine-2,5-dicarboxamide], the “Percent found in Urine (6 hrs)” value in series [1] is 89 ± 2 (3) Percent. Moreover, the clearance (as a rule, the volume of plasma or blood freed of the substance per unit of time) in series [2] (male, Sprague-Dawley, iv, 1 mL of a 2 mM solution, read-out: Pharmacokinetics Clearance) came out at 2.5 ± 0.2 mL/min. Further, the “Pharmacokinetics T1/2β” value in series [2] was 30.5 ± 3.2 (3) min. Further, in series [3], the “Tissue Clearance (Optical) T1/2β” value is reported as 20.4 ± 2.0 (4) min. For the same compound, in series [4], the “Photophysical Properties Emission λmax” value was 602 nm and the “Photophysical Properties Excitation λmax” value amounted to 499 nm.

Turning to `COCCOCCOCCOCCOCCOCCOCCOCCOCCOCCOCCOCCOCCOCCOCCOCCOCCOCCOCCOCCOCCOCCOCCOCCCNc1nc(C(=O)NCCOCCOCCOCCOCCOCCOCCOCCOCCOCCOCCOCCOCCOCCOCCOCCOCCOCCOCCOCCOCCOCCOCCOCCOC)c(NCCCOCCOCCOCCOCCOCCOCCOCCOCCOCCOCCOCCOCCOCCOCCOCCOCCOCCOCCOCCOCCOCCOCCOCCOC)nc1C(=O)NCCOCCOCCOCCOCCOCCOCCOCCOCCOCCOCCOCCOCCOCCOCCOCCOCCOCCOCCOCCOCCOCCOCCOCCOC` [Compound 5, 3,6-bis(2,5,8,11,14,17,20,23,26,29,32,35,38,41,44,47,50,53,56,59,62,65,68,71-tetracosaoxatetraheptacontan-74-ylamino)-N^2,N^5-di(2,5,8,11,14,17,20,23,26,29,32,35,38,41,44,47,50,53,56,59,62,65,68,71-tetracosaoxatriheptacontan-73-yl)pyrazine-2,5-dicarboxamide], the “Percent found in Urine (6 hrs)” value in series [1] is 86 ± 7 (3) Percent. Moreover, the “Tissue Clearance (Optical) T1/2β” value in series [3] was 17.6 ± 0.9 (4) min. For the same compound, in series [4], the “Photophysical Properties Emission λmax” value came to 603 nm and the “Photophysical Properties Excitation λmax” value is given as 495 nm.

As to `COCCOCCOCCOCCOCCOCCOCCOCCCNc1nc(C(=O)NCCOCCOCCOCCOCCOCCOCCOCCOCCOCCOCCOCCOCCOCCOCCOCCOCCOCCOCCOCCOCCOCCOCCOCCOC)c(NCCCOCCOCCOCCOCCOCCOCCOCCOC)nc1C(=O)NCCOCCOCCOCCOCCOCCOCCOCCOCCOCCOCCOCCOCCOCCOCCOCCOCCOCCOCCOCCOCCOCCOCCOCCOC` [Compound 6, 3,6-bis(2,5,8,11,14,17,20,23-octaoxahexacosan-26-ylamino)-N^2,N^5-di(2,5,8,11,14,17,20,23,26,29,32,35,38,41,44,47,50,53,56,59,62,65,68,71-tetracosaoxatriheptacontan-73-yl)pyrazine-2,5-dicarboxamide], in series [1], the “Percent found in Urine (6 hrs)” value was 92 ± 4 (3) Percent. Besides, the “Tissue Clearance (Optical) T1/2β” value in series [3] is on record as 19.1 ± 0.8 (4) min. In addition, in series [4], the “Photophysical Properties Emission λmax” value stood at 603 nm and the “Photophysical Properties Excitation λmax” value was 498 nm.

Turning to `COCCOCCOCCOCCCNc1nc(C(=O)NCCOCCOCCOCCOCCOCCOCCOCCOCCOCCOCCOCCOCCOCCOCCOCCOCCOCCOCCOCCOCCOCCOCCOCCOC)c(NCCCOCCOCCOCCOC)nc1C(=O)NCCOCCOCCOCCOCCOCCOCCOCCOCCOCCOCCOCCOCCOCCOCCOCCOCCOCCOCCOCCOCCOCCOCCOCCOC` [Compound 7, 3,6-Bis(2,5,8,11-tetraoxatetradecan-14-ylamino)-N^2,N^5-di(2,5,8,11,14,17,20,23,26,29,32,35,38,41,44,47,50,53,56,59,62,65,68,71-tetracosaoxatriheptacontan-73-yl)pyrazine-2,5-dicarboxamide], the “Percent found in Urine (6 hrs)” value in series [1] is recorded as 97 ± 2 (3) Percent. Also, in series [3], the “Tissue Clearance (Optical) T1/2β” value is listed as 14.6 ± 1.1 (4) min. In series [4], the “Photophysical Properties Emission λmax” value is listed as 602 nm and the “Photophysical Properties Excitation λmax” value worked out at 494 nm.

Consider `COCCOCCOCCOCCOCCOCCOCCOCCCNc1nc(C(=O)N[C@H](CO)C(=O)O)c(NCCCOCCOCCOCCOCCOCCOCCOCCOC)nc1C(=O)N[C@H](CO)C(=O)O` [Compound 8, 3,6-Bis(2,5,8,11,14,17,20,23-octaoxahexacosan-26-ylamino)-N^2,N^5-bis[(R)-1-carboxy-2-hydroxyethyl]pyrazine-2,5-dicarboxamide], for which the “Percent found in Urine (6 hrs)” value in series [1] is on record as 61 ± 7 (3) Percent.

On to `COCCOCCOCCOCCCNc1nc(C(=O)NCC(O)CO)c(NCCCOCCOCCOCCOC)nc1C(=O)NCC(O)CO` (centres unmarked) [Compound 13, 3,6-Bis(2,5,8,11-tetraoxatetradecan-14-ylamino)-N^2,N^5-bis(2,3-dihydroxypropyl)pyrazine-2,5-dicarboxamide], for which the “Percent found in Urine (6 hrs)” value in series [1] was 29 ± 2 (3) Percent.

Turning to `COCCOCCOCCOCCCNc1nc(C(=O)NCCOCCOCCOCCOCCOCCOCCOCCOCCOCCOCCOCCOC)c(NCCCOCCOCCOCCOC)nc1C(=O)NCCOCCOCCOCCOCCOCCOCCOCCOCCOCCOCCOCCOC` [Compound 15, 3,6-Bis(2,5,8,11-tetraoxatetradecan-14-ylamino)-N^2,N^5-di(2,5,8,11,14,17,20,23,26,29,32,35-dodecaoxaheptatriacontan-37-yl)pyrazine-2,5-dicarboxamide], the “Percent found in Urine (6 hrs)” value in series [1] is listed as 86 ± 1 (3) Percent. Besides, in series [4], the “Photophysical Properties Emission λmax” value came to 603 nm and the “Photophysical Properties Excitation λmax” value amounted to 492 nm.
